What was measured:
TYK2 JH2 = target: T1, TYK2 JH2 (Homo sapiens, UniProt P29597); assay: TYK2 JH2 binding assay (KINOMEscan KdELECT competitive binding); conditions: TYK2 JH2 domain, KINOMEscan KdELECT (Assay A); read-out: Biochemical TYK2_JH2_Kd
T1 construct: purchased DiscoverX (KINOMEscan KdELECT service); host or cells: E. coli BL21-derived (T7 phage display) or HEK-293
Method in brief: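 Kd values come from qPCR measurement of kinase retained on an immobilized-ligand resin after 1 h room-temperature competition with compound in an 11-point, 3-fold series.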

[1] = system: JAK1/TYK2 pSTAT5 (Tyr694/699) in THP-1 cell line; assay: IFNa-stimulated JAK1/TYK2 pSTAT5 (Tyr694/699) inhibition cellular assay, AlphaLISA; assay type: cell-based; conditions: Homo sapiens; THP-1 cells, IFNa-stimulated, AlphaLISA (Assay B); read-out: Cellular THP1_IFNa-pSTATS_IC50
Method in brief: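 Compound dilutions were dispensed first, and HBSS-suspended THP-1 cells were added on top (final top concentration 10000 nM, 6-fold series). After 1 h at 37 °C, IFNa (100 ng/mL as added) was applied for 30 min. Cells were then lysed and pSTAT5 was quantified by AlphaLISA.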

T1 sequence (P29597 589-875 limits assumed): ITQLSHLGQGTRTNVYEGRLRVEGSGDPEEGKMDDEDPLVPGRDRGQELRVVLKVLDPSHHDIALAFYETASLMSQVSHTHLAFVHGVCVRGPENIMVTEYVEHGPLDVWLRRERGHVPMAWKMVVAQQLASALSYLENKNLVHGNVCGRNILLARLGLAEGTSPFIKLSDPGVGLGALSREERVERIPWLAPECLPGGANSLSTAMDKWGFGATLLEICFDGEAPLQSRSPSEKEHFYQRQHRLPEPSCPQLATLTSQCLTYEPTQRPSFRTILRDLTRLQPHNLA

Row | SMILES | Kd (TYK2 JH2) [nM] | IC50 [1] [nM]
1 | CNc1ncc(-c2c[nH]c3ncccc23)c2cc(NC(=O)C3CC3)ncc12 [Example 106, N-(8-(methylamino)-5-(1H-pyrrolo[2,3-b]pyridin-3-yl)-2,7-naphthyridin-3-yl)cyclopropanecarboxamide] | ≤ 100 | > 500
2 | CNc1ncc(-c2ccc3c(c2)OCCO3)c2cc(NC(=O)C3CC3)ncc12 [Example 108, N-(5-(2,3-dihydrobenzo[b][1,4]dioxin-6-yl)-8-(methylamino)-2,7-naphthyridin-3-yl)cyclopropanecarboxamide] | ≤ 100 | > 500
3 | CNc1ncc(-c2ccc(C(F)(F)F)cc2)c2cc(NC(=O)C3CC3)ncc12 [Example 109, N-(8-(methylamino)-5-(4-(trifluoromethyl)phenyl)-2,7-naphthyridin-3-yl)cyclopropanecarboxamide] | ≤ 100 | > 500
4 | CNc1ncc(-c2ccc(OC(F)(F)F)cc2)c2cc(NC(=O)C3CC3)ncc12 [Example 110, N-(8-(methylamino)-5-(4-(trifluoromethoxy)phenyl)-2,7-naphthyridin-3-yl)cyclopropanecarboxamide] | ≤ 100 | > 500
5 | CNc1ncc(-c2ccc(OCC(F)(F)F)cc2)c2cc(NC(=O)C3CC3)ncc12 [Example 111, N-(8-(methylamino)-5-(4-(2,2,2-trifluoroethoxy)phenyl)-2,7-naphthyridin-3-yl)cyclopropanecarboxamide] | ≤ 100 | > 500
6 | CNc1ncc(-c2ccc(OC(F)F)cc2)c2cc(NC(=O)C3CC3)ncc12 [Example 112, N-(5-(4-(difluoromethoxy)phenyl)-8-(methylamino)-2,7-naphthyridin-3-yl)cyclopropanecarboxamide] | ≤ 100 | > 500
7 | CNc1ncc(-c2ccc(C3CC3)cc2)c2cc(NC(=O)C3CC3)ncc12 [Example 113, N-(5-(4-cyclopropylphenyl)-8-(methylamino)-2,7-naphthyridin-3-yl)cyclopropanecarboxamide] | ≤ 100 | > 500
8 | CNc1ncc(-c2cc3ccccc3o2)c2cc(NC(=O)C3CC3)ncc12 [Example 114, N-(5-(benzofuran-2-yl)-8-(methylamino)-2,7-naphthyridin-3-yl)cyclopropanecarboxamide] | ≤ 100 | ≤ 500
9 | CNc1ncc(-c2cnn(CCOC)c2)c2cc(NC(=O)C3CC3)ncc12 [Example 115, N-(5-(1-(2-methoxyethyl)-1H-pyrazol-4-yl)-8-(methylamino)-2,7-naphthyridin-3-yl)cyclopropanecarboxamide] | ≤ 100 | > 500
10 | CNc1ncc(-c2cccc(F)c2)c2cc(NC(=O)C3CC3)ncc12 [Example 116, N-(5-(3-fluorophenyl)-8-(methylamino)-2,7-naphthyridin-3-yl)cyclopropanecarboxamide] | ≤ 100 | > 500
11 | CNc1ncc(-c2ccc(OC3CC3)cc2)c2cc(NC(=O)C3CC3)ncc12 [Example 117, N-(5-(4-cyclopropoxyphenyl)-8-(methylamino)-2,7-naphthyridin-3-yl)cyclopropanecarboxamide] | ≤ 100 | > 500
12 | CNc1ncc(/C(C)=C/c2ccccc2)c2cc(NC(=O)C3CC3)ncc12 [Example 118, (E)-N-(8-(methylamino)-5-(1-phenylprop-1-en-2-yl)-2,7-naphthyridin-3-yl)cyclopropanecarboxamide] | ≤ 100 | ≤ 500
13 | CNc1ncc(-c2ccccc2COC)c2cc(NC(=O)C3CC3)ncc12 [Example 119, N-(5-(2-(methoxymethyl)phenyl)-8-(methylamino)-2,7-naphthyridin-3-yl)cyclopropanecarboxamide] | ≤ 100 | > 500
14 | CNc1ncc(C(=O)O)c2cc(NC(=O)C3CC3)ncc12 [Example 120, 6-(cyclopropanecarboxamido)-1-(methylamino)-2,7-naphthyridine-4-carboxylic acid] | 100 to 1000 | > 500
15 | CNC(=O)c1cnc(NC)c2cnc(NC(=O)C3CC3)cc12 [Example 124, 6-(cyclopropanecarboxamido)-N-methyl-1-(methylamino)-2,7-naphthyridine-4-carboxamide] | ≤ 100 | > 500
16 | C#Cc1cnc(NC)c2cnc(NC(=O)C3CC3)cc12 [Example 125, N-(5-ethynyl-8-(methylamino)-2,7-naphthyridin-3-yl)cyclopropanecarboxamide] | ≤ 100 | > 500
17 | CNc1ncc(-c2cc(Br)no2)c2cc(NC(=O)C3CC3)ncc12 [Example 126, N-(5-(3-bromoisoxazol-5-yl)-8-(methylamino)-2,7-naphthyridin-3-yl)cyclopropanecarboxamide] | ≤ 100 | > 500

Row | SMILES | Kd (TYK2 JH2) [nM] | IC50 [1] [nM]
18 | CNc1ncc(C#CC(=O)C2CC2)c2cc(NC(=O)C3CC3)ncc12 [Example 127, N-(5-(3-cyclopropyl-3-oxoprop-1-yn-1-yl)-8-(methylamino)-2,7-naphthyridin-3-yl)cyclopropanecarboxamide] | ≤ 100 | > 500
19 | CCC(=O)c1cnc(NC)c2cnc(NC(=O)C3CC3)cc12 [Example 128, N-((methylamino)-5-propionyl-2,7-naphthyridin-3-yl)cyclopropanecarboxamide] | ≤ 100 | > 500
20 | C/C=C/c1cnc(NC)c2cnc(NC(=O)C3CC3)cc12 [Example 129, (E)-N-(8-(methylamino)-5-(prop-1-en-1-yl)-2,7-naphthyridin-3-yl)cyclopropanecarboxamide] | ≤ 100 | > 500
21 | CNc1ncc(-c2cnc(C)o2)c2cc(NC(=O)C3CC3)ncc12 [Example 130, N-(8-(methylamino)-5-(2-methyloxazol-5-yl)-2,7-naphthyridin-3-yl)cyclopropanecarboxamide] | ≤ 100 | > 500
22 | CNc1ncc(-c2ccn(Cc3ccccc3)n2)c2cc(NC(=O)C3CC3)ncc12 [Example 131, N-(5-(1-benzyl-1H-pyrazol-3-yl)-8-(methylamino)-2,7-naphthyridin-3-yl)cyclopropanecarboxamide] | ≤ 100 | > 500
23 | CNc1ncc(-c2ccc(OC3CCN(C)CC3)cc2)c2cc(NC(=O)C3CC3)ncc12 [Example 132, N-(8-(methylamino)-5-(4-((1-methylpiperidin-4-yl)oxy)phenyl)-2,7-naphthyridin-3-yl)cyclopropanecarboxamide] | ≤ 100 | > 500
24 | CNc1ncc(-c2ncc(C)o2)c2cc(NC(=O)C3CC3)ncc12 [Example 133, N-(8-(methylamino)-5-(5-methyloxazol-2-yl)-2,7-naphthyridin-3-yl)cyclopropanecarboxamide] | ≤ 100 | > 500
25 | CNc1ncc(Nc2ccccc2)c2cc(NC(=O)C3CC3)ncc12 [Example 134, N-(8-(methylamino)-5-(phenylamino)-2,7-naphthyridin-3-yl)cyclopropanecarboxamide] | 100 to 1000 | > 500
26 | CNc1ncc(/C=C/c2ccc(OC)cc2)c2cc(NC(=O)C3CC3)ncc12 [Example 135, (E)-N-(5-(4-methoxystyryl)-8-(methylamino)-2,7-naphthyridin-3-yl)cyclopropanecarboxamide] | ≤ 100 | ≤ 500
27 | C=C(c1ccc(OC)cc1)c1cnc(NC)c2cnc(NC(=O)C3CC3)cc12 [Example 136] | 100 to 1000 | > 500
28 | CNc1ncc(C#Cc2ccccc2)c2cc(NC(=O)C3CC3)ncc12 [Example 137, N-(8-(methylamino)-5-(phenylethynyl)-2,7-naphthyridin-3-yl)cyclopropanecarboxamide] | ≤ 100 | ≤ 500
29 | CNc1ncc(-c2cc(C)ns2)c2cc(NC(=O)C3CC3)ncc12 [Example 138, N-(8-(methylamino)-5-(3-methylisothiazol-5-yl)-2,7-naphthyridin-3-yl)cyclopropanecarboxamide] | ≤ 100 | > 500
30 | CNc1ncc(-c2nc3ccccc3[nH]2)c2cc(NC(=O)C3CC3)ncc12 [Example 139, N-(5-(1H-benzo[d]imidazol-2-yl)-8-(methylamino)-2,7-naphthyridin-3-yl)cyclopropanecarboxamide] | ≤ 100 | > 500
31 | CNc1ncc(-c2nc(C)c[nH]2)c2cc(NC(=O)C3CC3)ncc12 [Example 140, N-(5-(4-methyl-1H-imidazol-2-yl)-8-(methylamino)-2,7-naphthyridin-3-yl)cyclopropanecarboxamide] | ≤ 100 | > 500
32 | CNc1ncc(-c2ncn(C)n2)c2cc(NC(=O)C3CC3)ncc12 [Example 141, N-(S-(1-methyl-1H-1,2,4-triazol-3-yl)-8-(methylamino)-2,7-naphthyridin-3-yl)cyclopropanecarboxamide] | ≤ 100 | > 500
33 | CNc1ncc(-c2nc3ccccc3o2)c2cc(NC(=O)C3CC3)ncc12 [Example 142, N-(5-(benzo[d]oxazol-2-yl)-8-(methylamino)-2,7-naphthyridin-3-yl)cyclopropanecarboxamide] | ≤ 100 | ≤ 500
34 | CNc1ncc(-c2ccc(C)o2)c2cc(NC(=O)C3CC3)ncc12 [Example 143, N-(8-(methylamino)-5-(5-methylfuran-2-yl)-2,7-naphthyridin-3-yl)cyclopropanecarboxamide] | ≤ 100 | ≤ 500

Source: patent US20240025906A1 (NEURON23, INC., priority 2022, published 2024)
